The source of these data is article PMC6697720, “Saturation of acyl chains converts cardiolipin from an antagonist to an activator of Toll-like receptor-4” (Cellular and Molecular Life Sciences: CMLS, 2019).

Experiment [1] relates to immortalized BMDMs. The experiment in a line: TNF-α secretion in immortalized BMDMs (WT or TLR4-KO) incubated with CL or LPS. The conditions noted are these: overnight; for TNF-α secretion: CL alone, immortalized BMDM. Format: cell-based, murine. The method, then:
Immortalized BMDM were seeded the day before the experiment at 5 × 10^5 cells/mL in 48-well plates (500 μL/well).
After stimulation, supernatants were collected, centrifuged, and assayed for cytokine secretion, while cells were assayed for viability.
TNF-α and IP-10 were quantified in cell supernatants using DuoSet ELISA kits from R&D Systems and human IL-1β using Instant ELISA™ Kit from Invitrogen, according to the manufacturer’s instructions. Absorbance was read with a BioTek Synergy HT Microplate Readers.
Fig. 3 Saturated but not unsaturated CLs have pro-inflammatory properties. a RAW-Blue™ cells were incubated overnight with the indicated amount of CL or LPS, supernatants were collected, and NF-κB activation quantified via Quanti-Blue™ test and reported here as fold induction as compared to control. Unpaired t test: differences with respect to the control (Ctrl) are not significant if p > 0.05 (no symbol); *p ≤ 0.0007. b Immortalized BMDM cells were incubated overnight with the indicated amount of CL or LPS; supernatants were collected and TNF-α quantified via ELISA assay. c, d Primary human monocytes were incubated overnight with the indicated amount of CL or LPS with or without the NLRP3 inhibitor MCC950, supernatants were collected, and TNF-α and IL-1β were quantified via ELISA assay. Graphs are representative of experiments from six different donors. Unpaired t test: differences with respect to the control (Ctrl) are not significant if p > 0.05 (no symbol); *p ≤ 0.021. Each bar represents the mean + standard deviation of three biological replicates (n = 3). Graphs are representative of at least three independent experiments
(§1) Fig. 4 Saturated CLs are TLR4 agonists. a HEK293 cells were transfected with plasmids encoding murine TLR4, MD2, and CD14 (mTLR4), human TLR4, MD2, and CD14 (hTLR4) or with empty pcDNA3.1 plasmid, MD2 and CD14 (w/o TLR) together with a luciferase reporter plasmid dependent on NF-κB activation and a constitutively active reporter vector-encoding renilla luciferase. Two days after transfection, cells were incubated for 6 h with medium alone (Ctrl) or the indicated amount of CLs or LPS. Luciferase and renilla were quantified in cell lysate, normalized and reported here as fold induction as compared to control. Unpaired t test: differences compared to the control are not significant if p > 0.05(no symbol); *p ≤ 0.005. b WT and TLR4-KO iBMDM cells were incubated overnight with medium (c), LPS or C14:0 CL. For each condition, mTNF-α was measured by ELISA assay. Unpaired t test: differences with respect to the control are not significant if p > 0.05(no symbol); *p ≤ 0.0001. Each bar represents the mean + standard deviation of three biological replicates (n = 3). Graphs are representative of at least three independent experiments

Experiment [2] deals with T1, human TLR4, MD2, and CD14 (Homo sapiens, UniProt O00206+Q9Y6Y9).
T1 construct: expressed in transfected cells; host or cells: HEK293 (ATCC CRL1573), transient transfection with jetPEI
T1 sequence (O00206 24-839): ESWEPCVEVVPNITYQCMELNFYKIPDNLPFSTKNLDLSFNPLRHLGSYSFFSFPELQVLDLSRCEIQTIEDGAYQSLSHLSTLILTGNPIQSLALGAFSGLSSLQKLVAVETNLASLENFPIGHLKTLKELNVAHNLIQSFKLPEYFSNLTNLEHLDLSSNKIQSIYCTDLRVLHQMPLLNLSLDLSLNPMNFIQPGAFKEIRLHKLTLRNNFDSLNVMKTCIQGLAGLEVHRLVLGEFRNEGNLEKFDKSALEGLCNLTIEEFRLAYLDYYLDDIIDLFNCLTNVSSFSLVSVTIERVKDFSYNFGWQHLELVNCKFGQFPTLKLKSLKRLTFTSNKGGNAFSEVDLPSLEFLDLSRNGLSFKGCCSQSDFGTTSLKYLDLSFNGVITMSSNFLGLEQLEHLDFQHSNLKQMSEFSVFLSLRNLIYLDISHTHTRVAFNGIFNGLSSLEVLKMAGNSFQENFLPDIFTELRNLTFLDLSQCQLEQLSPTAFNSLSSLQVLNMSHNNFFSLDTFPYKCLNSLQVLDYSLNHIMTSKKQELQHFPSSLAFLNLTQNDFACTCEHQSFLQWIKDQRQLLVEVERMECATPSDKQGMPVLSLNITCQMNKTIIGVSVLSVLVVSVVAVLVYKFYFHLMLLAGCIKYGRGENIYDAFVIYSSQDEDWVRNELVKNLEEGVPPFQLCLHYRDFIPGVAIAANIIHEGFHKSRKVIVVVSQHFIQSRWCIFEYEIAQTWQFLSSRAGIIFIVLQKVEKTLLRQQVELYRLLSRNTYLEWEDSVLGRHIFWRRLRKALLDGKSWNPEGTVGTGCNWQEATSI
T1 sequence (Q9Y6Y9 19-160): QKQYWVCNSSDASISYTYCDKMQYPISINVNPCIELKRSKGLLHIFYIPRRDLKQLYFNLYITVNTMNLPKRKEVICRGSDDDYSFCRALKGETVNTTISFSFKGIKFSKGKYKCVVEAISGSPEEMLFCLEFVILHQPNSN
Kind of experiment: NF-κB luciferase reporter activation by CLs in HEK293 cells transfected with human TLR4, MD2 and CD14. The format is cell-based. The conditions noted are these: for activation of human TLR4 (NF-κB): 6 h incubation. On the procedure:
Cells were seeded at 4 × 10^4 cells/mL in 96-well plates (200 μL/well) and transiently transfected 4 days later. Expression vectors containing an NF-κB transcription reporter vector-encoding firefly luciferase (10 ng/well pNF-κB-luc from Clontech), and a constitutively active reporter vector-encoding Renilla luciferase (5 ng/well phRG-TK; Promega), together with empty vector (pcDNA3.1 from Invitrogen Cat. N. V79020) and cDNA encoding human membrane CD14 (3 ng/well) and human or murine TLR4 and MD2 (3 ng/well) were mixed with jetPEI (Polyplus transfection Cat.N. 101-10N) and incubated with cells according to the manufacturer’s instructions.
After treatment supernatants were discarded, cells were washed with PBS and lysed with passive lysis buffer (Promega Cat.N. E1941). Luciferase and Renilla activity on cell lysates were quantified on a BioTek Synergy HT microplate reader using home-made luciferase reagent (20 mM Tricine, 2.67 mM MgSO4·7H2O, 0.265 mM (MgCO3)4Mg(OH)2·5H2O, 0.1 mM EDTA, 33.3 mM DTT, 530 μM ATP, 270 μM Acetyl Coenzyme A (Lithium salt), 470 μM luciferin (Biosynth), pH 7.8, diluted two times in water before use), or coelenterazine (Biosynth) dissolved in ethanol at 1 mg/mL and diluted 500 times in PBS before use as previously described. Firefly and Renilla luciferase activity on cell lysates were normalized, and data were expressed as fold induction as compared to unstimulated conditions.
The first signaling event of these pathways is NF-κB activation through TLR4 activation. To investigate how the individual CD14, TLR4, and MD2 proteins contribute to the responses of cells to CL, we used the HEK transfection model where we can control which protein (including from different species) may be added to the cells and their contribution to CL activation of Nf-κB [21, 30, 31]. We transfected HEK293 cells with human or murine CD14 and MD2 with or without TLR4 and incubated them with saturated CLs for 6 h (Fig. 4a). All three saturated CLs activated murine TLR4. By contrast, only C16:0 and C18:0 activated the human receptor. To further confirm the role of TLR4, we compared TNF-α secretion induced by C14:0 CL in wild-type (WT) or TLR4 knock out (TLR4 KO) immortalized BMDMs. Both LPS and C14:0 CL induced TNF-α secretion in WT but not in TLR4-KO BMDMs (Fig. 4b). TLR4-KO BMDMs were normally responsive to TLR2 ligand Pam3CSK4 (data not shown).
as §1, with “Graphs are representative of at least three independent experiments” left out
For orientation: Reporter assays use an easily measured gene product as a stand-in for the process of interest.

Take `CCCCCCCCCCCCCC(=O)OC[C@H](COP(=O)(O)OCC(O)COP(=O)(O)OC[C@@H](COC(=O)CCCCCCCCCCCCC)OC(=O)CCCCCCCCCCCCC)OC(=O)CCCCCCCCCCCCC` (stereo partly drawn) [C14:0 CL]: the TNF-α secretion entry in experiment [1] is given as “induced”. In addition, the “TNF-α secretion in WT iBMDMs” value in experiment [1] (wild-type) was “induced”. In experiment [2], the “activation of human TLR4 (NF-κB)” value was “not”.
Regarding `CCCCCCCCCCCCCCCCCC(=O)OC[C@H](COP(=O)(O)OCC(O)COP(=O)(O)OC[C@@H](COC(=O)CCCCCCCCCCCCCCCCC)OC(=O)CCCCCCCCCCCCCCCCC)OC(=O)CCCCCCCCCCCCCCCCC` (stereo partly drawn) [C18:0 CL], in experiment [1], the TNF-α secretion result was “induced”. Also, in experiment [2], the “activation of human TLR4 (NF-κB)” value is listed as “activated”. For the same compound, the “NF-κB induction in HEK293 cells transfected with TLR4 in the absence of CD14 or MD2” value in experiment [2] (hTLR4 without CD14 or without MD2, 6 h) is “not induced”.
